Read-outs that look alike come from different tables or passages of the source.
Experiments:
[1] = High throughput solubility assay; type: physicochemical; settings: aqueous buffer, pH 7.4, 0.05M phosphate buffer
Procedure: IV. High Throughput Solubility Assay
Two samples are prepared for each compound. One (the standard sample) contains the compound at a fixed concentration of 20 μM in an aqueous/organic mixed solvent cocktail. The other (the test sample) contains the compound at a maximum concentration of 200 μM in pH 7.4, 0.05M phosphate buffer and shaking for 24 h. The test sample is filtered by 0.45μ filter and then spun for 10 min to remove any undissolved solid. HPLC analyses are preformed on these samples. The peak areas are used for computing solubility.

H460 = assay: Methylene blue growth inhibition assay, H460; type: cell-based; settings: Homo sapiens
Procedure: (§1) II. Methylene Blue Growth Inhibition Assay—Inhibition of Cell Proliferation by PLK1 Inhibitors
(§2) Generally, exponentially growing cell lines of different tumor origins, cultured in appropriate media containing 10% fetal bovine serum at 37° C. in a 5% CO2 incubator were plated at low density (less than 2000 cells/well) in 96-well plates. […]. Seventy two hours post-treatment, cell numbers were determined using 100 μl per well of methylene blue (Sigma M9140) (0.5% in 50:50 Ethanol:water). Stain was incubated at room temperature for 30 minutes before plates were rinsed and dye solubilized in 1% N-lauroyl sarcosine, sodium salt, (Sigma L5125, in PBS) (further details of a methylene blue assay are described below). Plates were read on a microplate reader, measuring the OD at 620 nm.
(§3) . The data are shown in Table 1 below and represent a compilation of several different experiments, each performed using the general parameters outlined above, although minor variations may have been employed in some instances.
(§4) In one assay, normal human foreskin fibroblasts (HFF), human colon (HCT116, RKO), lung (H460, A549) and breast (MCF7) tumor cell lines were cultured in high glucose DMEM (Life Technologies) containing 10% fetal bovine serum (FBS) at 37° C. in a humidified 5% CO2, 95% air incubator. Cells were harvested using trypsin/EDTA, counted using a haemocytometer, and plated in 100 μL of culture media per well, at the following densities, in a 96-well tissue culture plate (Falcon 3075): HFF 5,000 cells/well, HCT116 3,000 cells/well, RKO 2,500 cells/well, H460 2,500 cells/well, A549 5,000 cells/well, MCF7 4,000 cells/well. The next day, compounds were diluted in low glucose DMEM containing 100 μg/mL gentamicin, at twice the final required concentration, from 10 mM stock solutions in DMSO. 100 μL/well of these dilutions were added to the 100 μL of media currently in the assay plates. Medium containing 0.6% DMSO was added to control wells. The final concentration of DMSO in all wells was 0.3%. Cells were incubated at 37° C., 5% CO2 for 72 h. Medium was removed by aspiration. Cell biomass was estimated by staining cells with 80 μL per well methylene blue (Sigma M9140, 0.5% in 50:50 ethanol:water), and incubation at room temperature for 30-60 min. Stain was removed by aspiration and the plates rinsed by immersion in water, then air-dried. To release stain from the cells, 100 μL of solubilization solution was added (1% N-lauroyl sarcosine, Sodium salt, Sigma L5125, in PBS), and plates were shaken gently for about 30 min. Optical density at 620 nm was measured on a microplate reader. Percent inhibition of cell growth was calculated relative to vehicle treated control wells. […].

MCF7 = assay: Methylene blue growth inhibition assay, MCF7; type: cell-based; settings: Homo sapiens
Procedure: as §1, §2, §3, §4

HCT116 = assay: Methylene blue growth inhibition assay, HCT116; type: cell-based; settings: Homo sapiens
Procedure: as §1, §2, §3, §4

[2] = test system: normal human foreskin fibroblasts (HFF); assay: Methylene blue growth inhibition assay, HFF; type: cell-based; settings: Fibroblast, 72 h
Procedure: as §1, §2, §3, §4

RKO = assay: Methylene blue growth inhibition assay, RKO; type: cell-based; settings: Homo sapiens, 72 h
Procedure: as §1, §2, §3, §4

A549 = assay: Methylene blue growth inhibition assay, A549; type: cell-based; settings: Homo sapiens
Procedure: as §1, §2, §3, §4

PLK1 kinase domain = biological target: T1, PLK1 kinase domain (Homo sapiens, UniProt P53350); assay: Assay for inhibition of PLK1 (SPA, 33P-ATP, biotinylated peptide substrate); type: biochemical; settings: 1 μM ATP, 2 nM PLK1 kinase domain; read-out: PLK1 pIC50 (converted)
T1 construct: made in house; host or cells: baculovirus infected T. ni cells
Procedure: I. Assay for Inhibition of PLK1
All procedures were performed at 4° C. Cells were lysed in 50 mM HEPES, 200 mM NaCl, 50 mM imidazole, 5% glycerol; pH 7.5. The homogenate was centrifuged at 14K rpm in a SLA-1500 rotor for 1 h and the supernatant filtered through a 1.2 micron filter. The supernatant was loaded onto a Nickel chelating Sepharose (Amersham Pharmacia) column and washed with lysis buffer. Protein was eluted using 20%, 30% and 100% buffer B steps where buffer B is 50 mM HEPES, 200 mM NaCl, 300 mM imidazole, 5% glycerol; pH 7.5. Fractions containing PLK were determined by SDS-PAGE. Fractions containing PLK were diluted five-fold with 50 mM HEPES, 1 mM DTT, 5% glycerol; pH 7.5, then loaded on an SP Sepharose (Amersham Pharmacia) column. After washing the column with 50 mM HEPES, 1 mM DTT, 5% glycerol; pH 7.5, PLK was step eluted with 50 mM HEPES, 1 mM DTT, 500 mM NaCl; 5% glycerol; pH 7.5. PLK was concentrated using a 10 kDa molecular weight cutoff membrane and then loaded onto a Superdex 200 gel filtration (Amersham Pharmacia) column equilibrated in 25 mM HEPES, 1 mM DTT, 500 mM NaCl, 5% glycerol; pH 7.5. Fractions containing PLK were determined by SDS-PAGE. PLK was pooled, aliquoted and stored at −80° C. Samples were quality controlled using mass spectrometry, N-terminal sequencing and amino acid analysis.
B. Enzyme activity +/− inhibitors was determined as follows: All measurements were obtained under conditions where signal production increased linearly with time and enzyme. Test compounds were added to white 384-well assay plates (0.1 μL for 10 μL and some 20 μL assays, 1 μL for some 20 μL assays) at variable known concentrations in 100% DMSO. DMSO (1-5% final, as appropriate) and EDTA (65 mM in reaction) were used as controls.
Reaction Mix (10 or 20 μL) was quickly added to each well immediately following addition of enzyme via automated liquid handlers and incubated 1-1.5 h at 22° C. The 20 μL enzymatic reactions were stopped with 50 μL of stop mix (50 mM EDTA, 4.0 mg/ml Streptavidin SPA beads in Standard Dulbecco's PBS (without Mg^2+ and Ca^2+), 50 μM ATP) per well. The 10 μL reactions were stopped with 10 μL of stop mix (50 mM EDTA, 3.0 mg/mL Streptavidin-coupled SPA Imaging Beads (“LeadSeeker”) in Standard Dulbecco's PBS (without Mg^2+ and Ca^2+), 50 μM ATP) per well. Plates were sealed with clear plastic seals, spun at 500×g for 1 min or settled overnight, and counted in Packard TopCount for 30 seconds/well (regular SPA) or imaged using a Viewlux imager (LeadSeeker SPA). Signal above background (EDTA controls) was converted to percent inhibition relative to that obtained in control (DMSO-only) wells.

human plasma proteins = assay: Protein binding to human plasma proteins using equilibrium dialysis; type: in vitro ADME; settings: pH 7.4, equilibrium dialysis 6 h, 37° C.
Procedure: III. Determination of Protein Binding to Human Plasma Proteins Using Equilibrium Dialysis
96 Well Plate (High Throughput Dialysis): Stock solutions of compounds were spiked into human plasma at a target concentration of 2000 ng/mL. The mixture was inverted gently several times to insure homogeneity and triplicate 50 μL aliquots were collected to verify initial concentrations. Following assembly of dialysis plate (HTDialysis membrane strips, molecular weight cut off limit of 12,000-14,000 daltons), spiked plasma (150 μL) was placed in the donor compartment of the well and Phosphate Buffered Saline pH 7.4 (150 μL) in the receiver compartment. Eight wells were set up per compound and plasma type. Plate was placed in a 37° C. incubator on a plate shaker. Following the 6 h incubation period, the plate was removed. Single 50 μL aliquots from each donor and receiver compartment (per well) were analyzed. Sample analysis was by LC/MS/MS (results reported as Drug Peak Area/Internal Standard Peak Area ratios). Protein binding assay can also be performed using dialysis cells instead of HT Dialysis 96 well plates. In Table 1, % Protein Binding, +=>98%; ++=95-98%: +++=<95%.

[3] = NCI-H460, methylene blue, 72 h, H460, read-out: H460 IC50
[4] = methylene blue, 72 h, MCF7, read-out: MCF7 IC50
[5] = HCT-116, methylene blue, 72 h, HCT116, read-out: HCT116 IC50
[6] = methylene blue, HFF normal fibroblasts, read-out: HFF IC50
[7] = methylene blue, read-out: RKO IC50
[8] = methylene blue, 72 h, A549, read-out: A549 IC50

T1 sequence (P53350 21-346): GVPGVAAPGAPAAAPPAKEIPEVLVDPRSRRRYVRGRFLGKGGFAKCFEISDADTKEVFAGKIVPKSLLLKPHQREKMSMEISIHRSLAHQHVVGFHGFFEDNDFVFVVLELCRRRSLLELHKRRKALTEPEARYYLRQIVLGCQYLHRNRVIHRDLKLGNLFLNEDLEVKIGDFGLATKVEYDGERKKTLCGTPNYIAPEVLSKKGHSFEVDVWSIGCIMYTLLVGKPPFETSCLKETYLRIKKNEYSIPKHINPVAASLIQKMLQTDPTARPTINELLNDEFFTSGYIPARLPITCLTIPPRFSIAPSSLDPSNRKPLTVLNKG

Structure (SMILES) | solubility at 24 h [1] [µM] | IC50 (H460; [3]) [µM] | IC50 (MCF7; [4]) [µM] | IC50 (HCT116; [5]) [µM] | IC50 [2, 6] [µM] | IC50 (RKO; [7]) [µM] | IC50 (A549; [8]) [µM] | IC50 (PLK1 kinase domain) [nM] | fraction unbound at 6 h, 2000 ng/mL (human plasma proteins) | IC50 (H460; NCI-H460, 72 h, read-out: H460 IC50 (μM)) [µM] | IC50 (MCF7; MCF7, 72 h, read-out: MCF7 IC50 (μM)) [µM] | IC50 (HCT116; HCT-116, 72 h, read-out: HCT116 IC50 (μM)) [µM] | IC50 ([2]; read-out: HFF IC50 (μM)) [µM] | IC50 (RKO; read-out: RKO IC50 (μM)) [µM] | IC50 (A549; A549, 72 h, read-out: A549 IC50 (μM)) [µM]
C[C@@H](Oc1cc(-n2cnc3ccc(CN4CCN(C)CC4)cc32)sc1C(N)=O)c1ccccc1Cl [Example 4, 3-{[(1R)-1-(2-Chlorophenyl)ethyl]oxy}-5-{6-[(4-methylpiperazin-1-yl)methyl]-1H-benzimidazol-1-yl}thiophene-2-carboxamide] | > 100 | < 0.1 | < 0.1 | < 0.1 | < 0.1 | < 0.1 | < 0.1 | < 10 | – | – | – | – | – | – | –
C[C@@H](Oc1cc(-n2cnc3ccc(CS(C)(=O)=O)cc32)sc1C(N)=O)c1ccccc1C(F)(F)F [Example 1, 5-{6-[(Methylsulfonyl)methyl]-1H-benzimidazol-1-yl}-3-({(1R)-1-[2-(trifluoromethyl)phenyl]ethyl}oxy)-2-thiophenecarboxamide] | 30 to 100 | < 0.1 | < 0.1 | < 0.1 | 0.1 to 1 | < 0.1 | < 0.1 | < 10 | 0.02 to 0.05 | – | – | – | – | – | –
C[C@@H](Oc1cc(-n2cnc3ccc(OC4CCNCC4)cc32)sc1C(N)=O)c1ccccc1Cl [Example 6, 3-{[(1R)-1-(2-Chlorophenyl)ethyl]oxy}-5-[6-(4-piperidinyloxy)-1H-benzimidazol-1-yl]-2-thiophenecarboxamide] | > 100 | < 0.1 | – | < 0.1 | 0.1 to 1 | < 0.1 | < 0.1 | < 10 | > 0.05 | – | – | – | – | – | –
COc1cc2ncn(-c3cc(OCc4ccccc4C(F)(F)F)c(C(N)=O)s3)c2cc1OCCN1CCN(C)CC1 [Com. Ex 136, reference compound] | – | 0.1 to 1 | 0.1 to 1 | 0.1 to 1 | > 1 | 0.1 to 1 | – | 10 to 1000 | > 0.05 | – | – | – | – | – | –
C[C@@H](Oc1cc(-n2cnc3ccc(OC4CCN(C)CC4)cc32)sc1C(N)=O)c1ccccc1C(F)(F)F [Example 7, 5-{6-[(1-Methyl-4-piperidinyl)oxy]-1H-benzimidazol-1-yl}-3-({(1R)-1-[2-(trifluoromethyl)phenyl]ethyl}oxy)-2-thiophenecarboxamide] | > 100 | – | – | – | – | – | – | – | > 0.05 | – | – | – | – | – | –
COc1cc2ncn(-c3cc(OC(C)c4ccccc4Cl)c(C(N)=O)s3)c2cc1OC (stereo not drawn) [Com. Ex 126, reference compound] | – | – | – | – | – | – | – | – | < 0.02 | < 0.1 | > 1 | < 0.1 | 0.1 to 1 | < 0.1 | < 0.1
C[C@@H](Oc1cc(-n2cnc3ccc(OC4CCN(C)CC4)cc32)sc1C(N)=O)c1ccccc1Cl [Example 8, 3-{[(1R)-1-(2-Chlorophenyl)ethyl]oxy}-5-{6-[(1-methyl-4-piperidinyl)oxy]-1H-benzimidazol-1-yl}-2-thiophenecarboxamide] | > 100 | – | – | – | – | – | – | – | > 0.05 | – | – | – | – | – | –
CS(=O)(=O)c1ccc2ncn(-c3cc(OCc4ccccc4C(F)(F)F)c(C(N)=O)s3)c2c1 [Com. Ex 121, reference compound] | – | > 1 | > 1 | > 1 | > 1 | > 1 | > 1 | 10 to 1000 | 0.02 to 0.05 | – | – | – | – | – | –
